Experimental data reported in the METLIN SMRT retention time set (Domingo-Almenara et al. 2019).

Test: gradient 5% acetonitrile 3 min, to 50% in 2 min, to 85% in 15 min, held 3 min, 100 µL/min
Details: column: Zorbax Extend-C18 2.1 x 50 mm; eluents: water / acetonitrile, 0.1% formic acid
Outline: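 Values are retention times taken from adduct peaks that software picked and an analyst inspected. The pure standards were run as mixtures of ~100 molecules on HPLC linked to a quadrupole time-of-flight mass spectrometer, in positive and negative ionization mode. A Zorbax Extend-C18 column (2.1 × 50 mm, 1.8 μm) was used at 100 μL/min with water and acetonitrile, each including 0.1% formic acid.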

SMILES	RP-LC retention time [s]
Cc1cccc(-c2noc(Cn3ccn(-c4cc(C)cc(C)c4)c(=O)c3=O)n2)c1	925
Cc1nn(-c2ccc(Cl)cc2)c2nc(N3CCCC(C(=O)NCc4cccc(F)c4)C3)sc12 (stereo unspecified)	1240
COC(=O)c1c(C)[nH]c(C(=O)N2CCCC(C(=O)NCCCN3CCCCCC3)C2)c1C (stereo unspecified)	592
Cc1ccc(C(=O)N2CCC(n3c(=O)n(C)c4cncnc43)CC2)s1	659
O=C(Nc1ccccc1Cl)c1c(O)c2cccnc2n(-c2cccc(F)c2)c1=O	1270
O=C(Nc1nccs1)C1CC(=O)N(c2n[nH]c3cccc(F)c23)C1 (stereo unspecified)	650
CS(=O)(=O)Nc1ccc(C2(C(=O)NCc3ccc(F)cc3Cl)CCC2)cc1	847
CCc1ccc(-c2nn(C)c(=O)c3c2CCCC3)cc1S(=O)(=O)N1CCC(C(N)=O)CC1	736
COCc1cc(=O)n(CC(=O)Nc2cc(F)ccc2C)c(N)n1	627
CCc1nc2cccnc2n1C1CCN(C(=O)c2ccc(C(F)(F)F)cc2)C1 (stereo unspecified)	649
O=C(NCc1ccc2c(c1)OCO2)c1nc2ccccn2c1-c1ccsc1	787
CCc1ccc(CNC(=O)C2CCN(c3cncnc3N3CCOCC3)CC2)cc1	666
COc1ccc(Nc2c(-c3ccc(N(C)C)cc3)nc3cnc(Br)cn23)cc1OC	812
O=C(C1CCN(c2nc(-c3ccc(Cl)cc3)no2)CC1)N1CCC(N2CCCCC2)CC1	701
CCOC(=O)c1nc(N2CCOCC2)c2ccccc2n1	626
CCc1ccc(S(=O)(=O)Nc2ccc3nc(N4CCN(CC)CC4)cc(C(=O)O)c3c2)cc1	610
O=C1CCCc2nc(N3CCN(c4ncccn4)CC3)nc(Nc3ccccc3)c21	1110
COc1cccc(NS(=O)(=O)c2cc(-c3nc(C)c(C(=O)N4CCCC4)s3)cs2)c1	844
COc1ccccc1Cc1noc(C2CN(C(=O)c3ccccc3C(F)(F)F)C2)n1	873
CCCNC(=O)N(C1CCOCC1)C1CCN(C(=O)Cc2ccsc2)CC1	703
CCN1C(=O)c2cccnc2Sc2cc(NC(=O)c3ccc(F)c(Cl)c3)ccc21	964
Cc1cc2nn(CC(=O)NCc3ccccc3)c(=O)n2c(Nc2ccc(C)c(F)c2)n1	1060
COc1ccc(NC(=O)NCCc2nc3cccnc3n2-c2ccccc2)cc1OC	657
CCCCN1CCN(C(=O)CN2CCN(Cc3ccc(F)cc3Cl)C2=O)CC1	641
COc1ccc(-c2nc(CN(c3ccccc3)S(=O)(=O)c3cccs3)c(C)o2)cc1OC	1040
CCN(Cc1ccc(Cl)cc1)Cc1cc(=O)n2cccc(C)c2n1	648

SMILES	RP-LC retention time [s]
COc1cccc(Cn2nc3c(S(=O)(=O)N4CCN(c5ccc(F)cc5)CC4)cccn3c2=O)c1	997
O=C(CCC[C@@H]1[C@H]2CCCN3CCC[C@@H](CN1C(=O)c1ccco1)[C@@H]23)Nc1ccccc1	614
COCCN1C(=O)c2cccn2CC1CNC(=O)c1ccnn1C (stereo unspecified)	626
CN1CCc2nnc(C3CCN(C(=O)Nc4cc(Cl)cc(Cl)c4)C3)n2CC1 (stereo unspecified)	623
Cc1ccc(NC(=O)N(C)CCc2noc(COc3ccc(F)cc3)n2)cc1	926
CNC(=O)c1cc(N2CCN(C)CC2)nc2c(C)cccc12	601
Cc1ccc(NC(=O)C2CCCN2S(=O)(=O)c2cc3c(cc2Cl)NC(=O)CO3)cc1C (stereo unspecified)	832
O=C(CCC1CCN(c2cc(NC3CC3)ncn2)CC1)N1CCN(c2ncccn2)CC1	615
Cc1nn(CC(=O)NC2CCCCCC2)c(=O)c2nn(-c3ccccc3)c(C)c12	822
CCN1C(=O)COc2cc(-c3noc(C(=O)NCCc4ccc(S(N)(=O)=O)cc4)n3)ccc21	732
CCCNC(=O)CC1=C2CCCCC2NC1=O (stereo unspecified)	618
O=S(=O)(NCc1nc(-c2cccc(-c3ccn[nH]3)c2)no1)c1ccc(F)cc1	765
Cc1ccc(S(=O)(=O)N2CCCCC2)cc1-c1nnc(-c2ccccc2Cl)o1	1160
Cc1nnc(C2CCCCCN2C(=O)c2occc2C)o1 (stereo unspecified)	718
O=C(Cn1cnc2cc3c(cc21)OCCO3)NCc1ccc2c(c1)OCCCO2	596
CC(C)NC(=O)c1ccc(OCC2CCCN(C(=O)c3ccc(Cl)cc3)C2)cc1 (stereo unspecified)	881
CCCNC(=O)N1CC(Oc2cccc(-c3nc(-c4ccccc4)no3)c2)C1	1040
Cc1ccc(=O)n(CCNC(=O)c2cc(C)oc2C)n1	616
O=c1c2c(CO)c(-c3ccccc3)nn2ccn1Cc1ccccc1	896
O=C(c1ccc(F)c(F)c1)N1CCN(c2cc(-c3ccc(F)cc3)[nH]n2)CC1	837
O=C(c1ccccc1C(F)(F)F)N1CCN(S(=O)(=O)C2CC2)CC1	725
O=C(NC1CCCCCCC1)C1CCN(C(=O)c2ncn3c2COC(c2ccc(F)cc2)C3)CC1 (stereo unspecified)	852
Cc1nc(-c2csc(S(=O)(=O)N3CCC(C(=O)NCc4ccc5c(c4)OCO5)CC3)c2)no1	832
Cc1cc(=O)c2c(=O)[nH][nH]c2[nH]1	567
CCNC(=O)CCc1nc2ccccc2n(CC(=O)Nc2ccc(OCC)cc2)c1=O	775

Now from value to molecule:

RP-LC retention time [s]	SMILES
801	O=C(C1CCN(c2ccc(Sc3ccc(Cl)cc3)nn2)CC1)N1CCN(c2ncccn2)CC1
859	N#Cc1cccc(NC(=O)Cn2cccc(-c3nc(-c4ccc(F)cc4)no3)c2=O)c1
705	CSc1cccc(NC(=O)Cn2c(=O)n(C3CC3)c(=O)c3nscc32)c1
722	NS(=O)(=O)c1ccc(NC(=O)CC2Sc3ccc(C(F)(F)F)cc3NC2=O)cc1 (stereo unspecified)
612	CC1CCCN(CCCNC(=O)C2CCN(S(=O)(=O)c3ccc4c(c3)sc(=O)n4C)CC2)C1 (stereo unspecified)
899	Cc1sc(NC(=O)c2ccccc2F)nc1-c1ccc2c(c1)NC(=O)C(C)O2 (stereo unspecified)
629	CCCOc1ccc(CN2CCC3(CCC3O)CC2)cc1OC (stereo unspecified)
932	COCc1nc(-c2ccc(OC3CCN(C(=O)C4(c5ccccc5)CC4)C3)cc2)no1 (stereo unspecified)
1110	Cc1cccc(-c2nnc(-c3cc(S(=O)(=O)N4CCCC4)ccc3Cl)o2)c1
656	CN1CCCN(C(=O)c2cn(-c3ccc(-c4nc(C(C)(C)C)no4)cn3)cn2)CC1
1260	Cc1ccc(NS(=O)(=O)c2cc(-c3nc(C(C)(C)C)cs3)cs2)c(F)c1
628	CCOC(=O)Nc1ccc2c(c1)CN(C(C)=O)CC2
725	O=C([C@@H]1C[C@H](F)CN1C(=O)Nc1ccc(Br)cc1)N1CCCCC1
982	COc1ccc(OC)c(-c2cn3ccn(-c4ccc(C)c(Cl)c4)c(=O)c3n2)c1
861	CCOC(=O)c1ccc(N2C=C(C(=O)OC)S(=O)(=O)c3cc(F)ccc32)cc1
797	CN1CCCCCCN(C(=O)c2ccsc2)[C@H]2CCC[C@H]2C1=O
732	COc1ccc(NC(=O)c2cnc3c(c2)c(=O)n(C)c(=O)n3C)cc1
652	CNC(=O)O[C@H]1COc2ccc(N3CCN(C4COC4)CC3)cc2[C@@H]1NC(=O)c1ccc(F)cc1

RP-LC retention time [s]	SMILES
1070	O=C(Nc1cccc(Cl)c1)C1CCCN(C(=O)Cc2cccc3ccccc23)C1 (stereo unspecified)
663	Cn1c(=O)c2c(nc(N3CCOCC3)n2C)n(C)c1=O
873	CC(=O)Nc1cccc(-c2nc(-c3ccc4c(c3)oc(=O)n4C(C)C)no2)c1C
607	CC(C)C(=O)Nc1ccc2c(c1)nc(CN1CCOCC1)n2C(C)C
804	COc1ccccc1NC(=O)Cn1c(=O)c2cc(-c3ccco3)nn2c2ncccc21
639	CN(C)S(=O)(=O)c1cc2c(cc1N1CCN(c3ccccn3)CC1)Oc1ccccc1NC2=O
715	Cc1nc(-c2cc3ccccc3nc2N2CCN(Cc3ccccc3)CC2)no1
876	O=c1c(S(=O)(=O)N2CCCC2)cccn1Cc1ccc(Cl)cc1
967	CCCCc1ccc(NC(=O)CSc2cc(N3CCC(C(=O)NCCC)CC3)ncn2)cc1
1230	O=C(NCc1ccccc1Cl)c1c(O)c2cccnc2n(-c2cccc(F)c2)c1=O
828	CCCc1nc(C2CC(=O)N(c3ccc(OC)cc3)C2)no1 (stereo unspecified)
894	COC(=O)C1=CN(c2cc(C)ccc2OC)c2ccccc2S1(=O)=O
919	CS(=O)(=O)N1CCC(C(=O)NCCc2ccccc2)Oc2ccc(Cl)cc21 (stereo unspecified)
907	COc1ccc(-c2noc(C3CCCN3C(=O)c3ccccc3)n2)cc1 (stereo unspecified)
975	Cc1ccc(-c2nnc(-c3nn(C)c4c3CN(S(=O)(=O)c3ccc5c(c3)OCCO5)CC4)o2)cc1
843	CC(C)n1cnc(S(=O)(=O)N2CCC(C(=O)Nc3cccc(Br)c3)CC2)c1
763	Cc1cc(C)n(-c2ccc(=O)n(CCNS(=O)(=O)c3ccccc3C(F)(F)F)n2)n1
